Series [1] relates to Puccinia recondita. The experiment in a line: In vivo test on Puccinia recondita (wheat brown rust), Example I. The conditions noted are these: wheat (Scipion variety), 500 ppm of active ingredient, grading 10 days after contamination.
Series [2] can be described thus: log P by HPLC on reversed-phase column (C18), EEC Directive 79/831 Annex V.A8. Type of series: physicochemical. The settings on record: 40° C., 0.1% aqueous formic acid and acetonitrile, linear gradient 10% to 90% acetonitrile.
For series [3], the system named is Puccinia recondita. Put plainly: In vivo preventive test on Puccinia recondita (wheat), Example H. The conditions noted are these: 500 ppm, evaluated 7-9 days after inoculation. How it is done:
Solvent: 49 parts by weight of N,N-dimethylacetamide Emulsifier: 1 part by weight of alkylaryl polyglycol ether To produce a suitable preparation of active compound, 1 part by weight of active compound is mixed with the stated amounts of solvent and emulsifier, and the concentrate is diluted with water to the desired concentration. To test for preventive activity, young plants are sprayed with the preparation of active compound at the stated rate of application. One day after this treatment, the plants are inoculated with an aqueous spore suspension of Puccinia recondita. […] Then the plants are placed in a greenhouse at a temperature of approximately 20° C. and a relative atmospheric humidity of approximately 80%.

The subject of the next series is Pyrenophora teres. Put plainly: In vivo preventive test on Pyrenophora teres (barley), Example F. The settings on record: for Efficacy: 500 ppm of active ingredient, evaluated 7-9 days after inoculation; for disease control: 500 ppm, comparison with prior-art compound.
For a further series, the system named is Alternaria solani. The experiment in a line: In vivo preventive test on Alternaria solani (tomato). The settings on record: for Efficacy: 500 ppm of active ingredient, evaluated 7 days after inoculation; for disease control: 500 ppm, comparison with prior-art compound.
In the next series the test system is Botrytis cinerea. The experiment in a line: In vivo preventive test on Botrytis cinerea (beans). The conditions noted are these: 500 ppm of active ingredient, lesion size 2 days after inoculation. How it is done:
Solvent: 24.5 parts by weight of acetone
• 24.5 parts by weight of N,N-dimethylacetamide Emulsifier: 1 part by weight of alkylaryl polyglycol ether
(§1) To produce a suitable preparation of active compound, 1 part by weight of active compound is mixed with the stated amounts of solvent and emulsifier, and the concentrate is diluted with water to the desired concentration.
To test for protective activity, young plants are sprayed with the preparation of active compound. After the spray coating has dried on, 2 small pieces of agar covered with growth of Botrytis cinerea are placed on each leaf. The inoculated plants are placed in a darkened chamber at 20° C. and a relative atmospheric humidity of 100%.
2 days after the inoculation, the size of the lesions on the leaves is evaluated. 0% means an efficacy which corresponds to that of the control, while an efficacy of 100% means that no disease is observed. Under these conditions, excellent (at least 95%) to total protection is observed at a dose of 500 ppm of active ingredient with the following compounds from table C: […]

For a further series, the system named is Septoria tritici. Put plainly: In vivo preventive test on Septoria tritici (wheat). The conditions noted are these: 500 ppm of active ingredient, evaluated 21 days after inoculation. How it is done: Solvent: 49 parts by weight of N,N-dimethylacetamide Emulsifier: 1 part by weight of alkylaryl polyglycol ether To produce a suitable preparation of active compound, 1 part by weight of active compound or active compound combination is mixed with the stated amounts of solvent and emulsifier, and the concentrate is diluted with water to the desired concentration. To test for preventive activity, young plants are sprayed with the preparation of active compound or active compound combination at the stated rate of application. After the spray coating has dried on, the plants are sprayed with a spore suspension of Septoria tritici. […] The plants are placed in a greenhouse at a temperature of approximately 15° C. and a relative atmospheric humidity of approximately 80%.

Another series relates to Leptosphaeria nodorum. Put plainly: In vivo preventive test on Leptosphaeria nodorum (wheat). The settings on record: 500 ppm of active ingredient, evaluated 8 days after inoculation. Here is the method: Solvent: 49 parts by weight of N,N-dimethylacetamide Emulsifier: 1 part by weight of alkylaryl polyglycol ether To produce a suitable preparation of active compound, 1 part by weight of active compound or the compound combination is mixed with the stated amounts of solvent and emulsifier, and the concentrate is diluted with water to the desired concentration. To test for protective activity, young plants are sprayed with a preparation of active compound or active compound combination at the stated rate of application. After the spray coating has dried on, the plants are sprayed with a spore suspension of Leptosphaeria nodorum. […] The plants are placed in a greenhouse at a temperature of approximately 15° C. and a relative atmospheric humidity of approximately 80%.

Another series relates to Venturia inaequalis. The experiment in a line: In vivo preventive test on Venturia inaequalis (apple scab). The settings on record: 100 ppm of active ingredient, evaluated 10 days after inoculation. How it is done: Solvent: 24.5 parts by weight of acetone • 24.5 parts by weight of N,N-dimethylacetamide Emulsifier: 1 part by weight of alkylaryl polyglycol ether To produce a suitable preparation of active compound, 1 part by weight of active compound is mixed with the stated amounts of solvent and emulsifier, and the concentrate is diluted with water to the desired concentration. To test for protective activity, young plants are sprayed with the preparation of active compound at the stated rate of application. […] The plants are then placed in a greenhouse at approximately 21° C. and a relative atmospheric humidity of approximately 90%.

The test system of another series is Phakopsora pachyrhizi. The experiment in a line: In vivo protective test on Phakopsora pachyrhizi (soybean rust). The settings on record: 250 ppm of active ingredient, evaluated 11 days after inoculation. How it is done: Solvent: 28.5 parts by weight of acetone
Emulsifier: 1.5 parts by weight of polyoxyethylene alkyl phenyl ether
as §1
To test for protective activity, young plants are sprayed with the preparation of active compound at the stated rate of application. One day after spraying, the plants are inoculated with an aqueous spore suspension of the causal agent of soybean rust (Phakopsora pachyrhizi). The plants are then placed in a greenhouse at approximately 20° C. and a relative atmospheric humidity of approximately 80%.
The test is evaluated 11 days after the inoculation. 0% means an efficacy which corresponds to that of the control, while an efficacy of 100% means that no disease is observed.
Under these conditions, good (at least 80%) to total protection is observed at a dose of 250 ppm of active ingredient with the following compounds from table G: […]

The test system of another series is Aspergillus parasiticus. Type of series: cell-based. The conditions noted are these: 7 days at 20° C., OD620nm.
For series [4], the system named is Aflatoxins production by Aspergillus parasiticus. It is filed as cell-based.

The results in this text go back to patent publication US9556205B2, “Fungicide N-[(trisubstitutedsilyl)methyl]-carboxamide derivatives” (BAYER INTELLECTUAL PROPERTY GMBH, priority 2010, dated 2017).

As usually defined, the logP is a log measure of how a compound divides between an organic and an aqueous phase. Low values mean a more hydrophilic compound, high ones a more lipophilic compound.

Consider `CCc1nn(C)c(F)c1C(=O)N(C[Si](C)(C)c1ccccc1)C1CC1` [Example 7], for which the protection result with Puccinia recondita [1] was “at least 70%”. In series [2], the logP is on record as 3.64.

With `Cn1nc(C(F)F)c(C(=O)N(C[Si](C)(C)c2ccccc2)C2CCCCC2)c1F` [Example 11], the figures for the disease control in the series with Puccinia recondita [3], in the series on Pyrenophora teres and with Alternaria solani were 80%, 70% and 90%, respectively. The Efficacy in the series on Pyrenophora teres was 70%; with Alternaria solani it was 90%. The logP in series [2] was 4.86.

Turning to `Cc1cc(C(=O)N(C[Si](C)(C)c2ccccc2)C2CCCCC2)c(C)o1` [Example 12], the disease control with Puccinia recondita [3] is recorded as 40%; in the series with Pyrenophora teres, 70%; with Alternaria solani it was 80%. Besides, the Efficacy with Pyrenophora teres stood at 70%; in the series with Alternaria solani it was 80%. In series [2], this molecule displayed a logP of 5.62.

For the molecule `Cn1nc(C(F)F)c(C(=O)N(C[Si](C)(C)c2cc(Cl)cc(Cl)c2)C2CC2)c1F` [Example 52], the Efficacy with Botrytis cinerea is 100%; with Septoria tritici, 100%; in the series with Leptosphaeria nodorum, 100%; in the series with Venturia inaequalis it was 100%; in the series on Phakopsora pachyrhizi, 99%; in the series on Pyrenophora teres, 100%. The molecule also came in with an Efficacy with Alternaria solani of 100%. Further, the “% Inhibition of fungal growth at 50 μM” value with Aspergillus parasiticus came to 100%. Moreover, the “% Inhibition of Aflatoxin at 50 μM” value in series [4] came out at 100%. In series [2], this molecule registered a logP of 4.78.

On to `C[Si](C)(CN(C(=O)c1ccco1)C1CCCCC1)c1ccccc1` [N-cyclohexyl-N-{[dimethyl(phenyl)silyl]methyl}-2-furamide, reference compound], for which the disease control with Puccinia recondita [3] is recorded as 10%; in the series on Pyrenophora teres it was 0%; in the series with Alternaria solani, 0%.
